Measured values as given in US20130101615A1, “METHODS FOR PREVENTING OR TREATING A DISEASE OR CONDITION ASSOCIATED WITH MYCOBACTERIUM AVIUM SUBSPECIES PARATUBERCULOSIS” (priority 2005, published 2013).
“Also recorded” adds a separate entry of the source. Like-named read-outs stand apart in the source and are kept apart here.

What was measured:
MAP ATCC 19698 (bovine) = type: cell-based, Mycobacterium avium subspecies paratuberculosis; settings: for % ΔcGI: Bovine MAP 19698, vs 3.2% DMSO control; for effect on proliferation / cumulative growth index, in words: MAP ATCC 19698
M. avium 101 = type: cell-based, M. avium subspecies avium; settings: for % ΔcGI: vs 3.2% DMSO control
[1] = system: MAP 303 (ruminant with Johne's disease); experiment: Radiometric BACTEC growth inhibition, MAP 303; type: cell-based, Mycobacterium avium subspecies paratuberculosis; settings: Bovine MAP 303, vs 3.2% DMSO control
[2] = system: MAP UCF 4, isolated from human with Crohn's disease; experiment: Radiometric BACTEC growth inhibition, MAP UCF4; type: cell-based, Mycobacterium avium subspecies paratuberculosis; settings: for % ΔcGI: Human MAP UCF4, vs 3.2% DMSO control
M. avium ATCC 25291 = type: cell-based, M. avium subspecies avium; settings: for % ΔcGI: M. avium 25291, vs 3.2% DMSO control; for effect on growth, in words: M. avium ATCC 25291
[3] = system: MAP Dominic (ATCC 43545), isolated from human with Crohn's disease; type: cell-based, Mycobacterium avium subspecies paratuberculosis; settings: vs 3.2% DMSO control
MAP = experiment: Growth inhibition of MAP (strain not stated or MAP strains in general); settings: for %−ΔcGI (percent decrease in cumulative GI): Example 3, strain not stated

CO[C@H]1C[C@@H]2CC[C@@H](C)[C@@](O)(O2)C(=O)C(=O)N2CCCC[C@H]2C(=O)O[C@H]([C@H](C)C[C@@H]2CC[C@@H](O)[C@H](OC)C2)CC(=O)[C@H](C)/C=C(\C)[C@@H](O)[C@@H](OC)C(=O)[C@H](C)C[C@H](C)/C=C/C=C/C=C/1C [Rapamycin, sirolimus (rapamycin)]
% ΔcGI (MAP ATCC 19698 (bovine); 1 μg/ml): −3% | % ΔcGI (MAP ATCC 19698 (bovine); 4 μg/ml): −1% | % ΔcGI (MAP ATCC 19698 (bovine); 16 μg/ml): −18% | % ΔcGI (MAP ATCC 19698 (bovine); 64 μg/ml): −43% | % ΔcGI (M. avium 101; 1 μg/ml): −19% | % ΔcGI (M. avium 101; 4 μg/ml): −7% | % ΔcGI (M. avium 101; 16 μg/ml): −28% | % ΔcGI (M. avium 101; 64 μg/ml): −39% | % ΔcGI ([1]; 1 μg/ml): 4% | % ΔcGI ([1]; 4 μg/ml): −11% | % ΔcGI ([1]; 16 μg/ml): −15% | % ΔcGI ([1]; 64 μg/ml): −39% | % ΔcGI ([2]; 1 μg/ml): −14% | % ΔcGI ([2]; 4 μg/ml): −9% | % ΔcGI ([2]; 16 μg/ml): −29% | % ΔcGI ([2]; 64 μg/ml): −76% | %−ΔcGI (percent decrease in cumulative GI) ([2]; 64 μg/ml, MAP UCF 4): 76% | inhibition, in words ([2]; lower concentrations (1 and 16 μg/ml), MAP UCF 4): no inhibition | % ΔcGI (M. avium ATCC 25291; 1 μg/ml): 10% | % ΔcGI (M. avium ATCC 25291; 4 μg/ml): 7% | % ΔcGI (M. avium ATCC 25291; 16 μg/ml): 11% | % ΔcGI (M. avium ATCC 25291; 64 μg/ml): −18% | effect on growth, in words (M. avium ATCC 25291): no inhibition; also recorded: no effect | % ΔcGI ([3]; 1 μg/ml, Human MAP Dominic Expt. 1): 21% | % ΔcGI ([3]; 1 μg/ml, Human MAP Dominic Expt. 2): 0% | % ΔcGI ([3]; 4 μg/ml, Human MAP Dominic Expt. 1): 13% | % ΔcGI ([3]; 4 μg/ml, Human MAP Dominic Expt. 2): −7% | % ΔcGI ([3]; 16 μg/ml, Human MAP Dominic Expt. 1): −10% | % ΔcGI ([3]; 16 μg/ml, Human MAP Dominic Expt. 2): −9% | % ΔcGI ([3]; 64 μg/ml, Human MAP Dominic Expt. 1): −58% | % ΔcGI ([3]; 64 μg/ml, Human MAP Dominic Expt. 2): −44%

CC[C@H]1OC(=O)[C@H](C)[C@@H](O[C@H]2C[C@@](C)(OC)[C@@H](O)[C@H](C)O2)[C@H](C)[C@@H](O[C@@H]2O[C@H](C)C[C@H](N(C)C)[C@H]2O)[C@](C)(OC)C[C@@H](C)C(=O)[C@H](C)[C@@H](O)[C@]1(C)O [clarithromycin]
%−ΔcGI (percent decrease in cumulative GI) (MAP ATCC 19698 (bovine); 4 μg/ml, MAP 19698, Example 3): ~80% | %−ΔcGI (percent decrease in cumulative GI) (MAP; 0.5 μg/ml): ≥ 86% | effect on growth, in words (M. avium ATCC 25291): no evidence of growth

Nc1ccc(C(=O)O)c(O)c1 [p-aminosalicylic acid]
effect on proliferation / cumulative growth index, in words (MAP ATCC 19698 (bovine)): inhibited the proliferation of MAP (ATCC 19698) in a dose-dependent manner

Nc1ccc(O)c(C(=O)O)c1 [5-ASA, 5-aminosalicylic acid]
effect on proliferation / cumulative growth index, in words (MAP ATCC 19698 (bovine)): inhibited the proliferation of MAP (ATCC 19698) in a dose-dependent manner | effect on growth, in words (M. avium 101): little effect

CN(Cc1cnc2nc(N)nc(N)c2n1)c1ccc(C(=O)N[C@@H](CCC(=O)O)C(=O)O)cc1 [methotrexate]
%−ΔcGI (percent decrease in cumulative GI) (MAP; 2 μg/ml): 40% | %−ΔcGI (percent decrease in cumulative GI) (MAP; 4 μg/ml): ≥ 75% | effect on growth of MAP, in words (MAP; MAP strains in general): inhibit the growth kinetics of MAP

O=C(O)c1cc(/N=N/c2ccc(S(=O)(=O)Nc3ccccn3)cc2)ccc1O [sulfasalazine]
effect on proliferation / cumulative growth index, in words (MAP ATCC 19698 (bovine)): little effect on the cumulative growth index of MAP
